# Measured values as given in patent US9834571B2, “Compounds for inhibiting cell proliferation in EGFR-driven cancers” (ARIAD Pharmaceuticals, Inc., priority 2012, dated 2017).
# Like-named read-outs stand apart in the source and are kept apart here.
# What was measured:
# [1] = target: human EGFR (native sequence) (Homo sapiens, UniProt P00533); experiment: Kinase inhibitory activity against human EGFR (native sequence); assay type: biochemical; conditions: 10 μM ATP, read-out: IC50 for kinase inhibition, EGFR
# Chain of human EGFR (native sequence) (P00533 25-1210): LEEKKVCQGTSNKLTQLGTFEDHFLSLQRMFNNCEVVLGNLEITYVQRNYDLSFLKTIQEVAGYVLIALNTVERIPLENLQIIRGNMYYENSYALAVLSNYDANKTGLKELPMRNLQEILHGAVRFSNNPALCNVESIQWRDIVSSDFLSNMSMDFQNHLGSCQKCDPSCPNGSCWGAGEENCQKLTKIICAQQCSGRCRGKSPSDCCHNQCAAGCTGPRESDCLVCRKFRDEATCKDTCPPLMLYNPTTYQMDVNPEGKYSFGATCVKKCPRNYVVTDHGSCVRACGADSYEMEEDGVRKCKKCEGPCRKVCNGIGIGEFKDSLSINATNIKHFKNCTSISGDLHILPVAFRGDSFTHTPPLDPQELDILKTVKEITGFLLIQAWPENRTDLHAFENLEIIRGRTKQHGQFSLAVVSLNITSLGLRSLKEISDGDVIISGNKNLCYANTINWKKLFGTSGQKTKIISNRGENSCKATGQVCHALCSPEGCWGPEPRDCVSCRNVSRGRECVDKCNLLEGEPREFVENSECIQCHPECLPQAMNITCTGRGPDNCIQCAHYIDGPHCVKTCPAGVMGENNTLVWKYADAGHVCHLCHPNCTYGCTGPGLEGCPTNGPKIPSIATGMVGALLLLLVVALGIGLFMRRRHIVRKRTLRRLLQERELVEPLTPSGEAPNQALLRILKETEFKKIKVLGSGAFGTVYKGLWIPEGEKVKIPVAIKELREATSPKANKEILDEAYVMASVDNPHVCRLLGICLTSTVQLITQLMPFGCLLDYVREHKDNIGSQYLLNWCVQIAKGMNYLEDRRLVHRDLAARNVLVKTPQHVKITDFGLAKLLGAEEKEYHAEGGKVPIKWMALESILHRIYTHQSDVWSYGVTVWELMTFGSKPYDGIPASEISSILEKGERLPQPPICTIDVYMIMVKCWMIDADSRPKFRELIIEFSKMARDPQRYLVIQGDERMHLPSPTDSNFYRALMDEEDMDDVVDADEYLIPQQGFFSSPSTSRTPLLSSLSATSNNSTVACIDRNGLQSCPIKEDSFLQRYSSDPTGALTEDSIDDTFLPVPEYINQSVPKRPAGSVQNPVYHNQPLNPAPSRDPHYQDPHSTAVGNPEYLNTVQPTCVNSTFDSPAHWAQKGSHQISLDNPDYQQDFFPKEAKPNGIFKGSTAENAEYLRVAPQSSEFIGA
# Protocol: (§1) Kinase inhibitory activity of the compounds was measured against human EGFR (native sequence) and against EGFR bearing the L858R mution and the L858R/T790M double mutation (EGFR, L858R, and L858R/T790M, respectively in Table 1). Additional assays can be conducted with EGFR deletion mutants such as delE746-A750 with or without the additional T790M mutation. Assay conditions included 10 pt curves with 3 μM top concentration (singlicates) and 10 μM ATP.
# [2] = target: EGFR L858R (Homo sapiens, UniProt P00533, L858R); experiment: Kinase inhibitory activity against EGFR bearing the L858R mutation; assay type: biochemical; conditions: 10 μM ATP, read-out: IC50 for kinase inhibition, EGFR L858R
# Chain of EGFR L858R (P00533 25-1210 L858R): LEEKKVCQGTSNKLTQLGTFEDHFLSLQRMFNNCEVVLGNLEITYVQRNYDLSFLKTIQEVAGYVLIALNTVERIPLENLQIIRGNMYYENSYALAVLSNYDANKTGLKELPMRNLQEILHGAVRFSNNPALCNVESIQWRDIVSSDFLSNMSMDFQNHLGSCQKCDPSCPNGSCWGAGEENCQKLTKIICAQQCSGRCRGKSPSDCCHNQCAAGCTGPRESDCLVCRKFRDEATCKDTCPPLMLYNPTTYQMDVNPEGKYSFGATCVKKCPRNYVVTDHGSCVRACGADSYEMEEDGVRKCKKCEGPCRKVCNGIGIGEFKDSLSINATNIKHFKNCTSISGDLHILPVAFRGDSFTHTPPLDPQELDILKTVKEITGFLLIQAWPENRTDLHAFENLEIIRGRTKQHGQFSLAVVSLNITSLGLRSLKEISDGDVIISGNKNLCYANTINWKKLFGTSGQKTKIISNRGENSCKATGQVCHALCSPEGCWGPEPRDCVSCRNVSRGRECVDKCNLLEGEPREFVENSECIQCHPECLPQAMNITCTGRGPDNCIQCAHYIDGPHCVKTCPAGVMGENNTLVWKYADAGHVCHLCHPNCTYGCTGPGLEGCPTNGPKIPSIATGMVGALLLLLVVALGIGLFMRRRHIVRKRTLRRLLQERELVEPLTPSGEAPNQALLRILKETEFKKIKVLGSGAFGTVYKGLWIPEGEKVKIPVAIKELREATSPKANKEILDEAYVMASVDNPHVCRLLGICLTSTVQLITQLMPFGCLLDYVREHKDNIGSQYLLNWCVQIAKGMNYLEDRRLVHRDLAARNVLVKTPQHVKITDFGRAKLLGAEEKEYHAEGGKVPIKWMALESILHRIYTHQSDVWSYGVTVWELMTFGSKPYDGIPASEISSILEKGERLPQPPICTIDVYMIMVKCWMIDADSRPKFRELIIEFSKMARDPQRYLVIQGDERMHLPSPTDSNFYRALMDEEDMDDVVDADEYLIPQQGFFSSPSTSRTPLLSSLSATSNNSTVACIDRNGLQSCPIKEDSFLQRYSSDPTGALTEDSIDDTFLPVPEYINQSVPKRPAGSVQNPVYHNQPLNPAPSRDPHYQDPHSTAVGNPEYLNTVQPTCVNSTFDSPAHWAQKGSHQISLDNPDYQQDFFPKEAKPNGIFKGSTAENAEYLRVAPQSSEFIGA
# Protocol: as §1
# [3] = target: EGFR L858R/T790M (Homo sapiens, UniProt P00533, L858R/T790M); experiment: Kinase inhibitory activity against EGFR bearing the L858R/T790M double mutation; assay type: biochemical; conditions: 10 μM ATP, read-out: IC50 for kinase inhibition, EGFR L858R T790M
# Protocol: as §1
# [4] = target: T1, BaF3 cells expressing the target EGFR mutations (Homo sapiens, UniProt P00533, T790M, cells depend on it, form not given); experiment: Antiproliferative activity (MTT) against BaF3 cells expressing the target EGFR mutations; assay type: cell-based; conditions: BAF3 EGFR DEL T790M PURO POOL cells, read-out: IC50, BAF3 EGFR DEL T790M PURO POOL
# T1 construct: IC50, BAF3 EGFR DEL T790M PURO POOL; other: BAF3 EGFR DEL T790M PURO POOL cells, MTT; other: BAF3 EGFR DEL T790M PURO POOL cells; MTT
# T1 sequence (P00533 with tags, fused parts or gaps DEL746-750/T790M, form open): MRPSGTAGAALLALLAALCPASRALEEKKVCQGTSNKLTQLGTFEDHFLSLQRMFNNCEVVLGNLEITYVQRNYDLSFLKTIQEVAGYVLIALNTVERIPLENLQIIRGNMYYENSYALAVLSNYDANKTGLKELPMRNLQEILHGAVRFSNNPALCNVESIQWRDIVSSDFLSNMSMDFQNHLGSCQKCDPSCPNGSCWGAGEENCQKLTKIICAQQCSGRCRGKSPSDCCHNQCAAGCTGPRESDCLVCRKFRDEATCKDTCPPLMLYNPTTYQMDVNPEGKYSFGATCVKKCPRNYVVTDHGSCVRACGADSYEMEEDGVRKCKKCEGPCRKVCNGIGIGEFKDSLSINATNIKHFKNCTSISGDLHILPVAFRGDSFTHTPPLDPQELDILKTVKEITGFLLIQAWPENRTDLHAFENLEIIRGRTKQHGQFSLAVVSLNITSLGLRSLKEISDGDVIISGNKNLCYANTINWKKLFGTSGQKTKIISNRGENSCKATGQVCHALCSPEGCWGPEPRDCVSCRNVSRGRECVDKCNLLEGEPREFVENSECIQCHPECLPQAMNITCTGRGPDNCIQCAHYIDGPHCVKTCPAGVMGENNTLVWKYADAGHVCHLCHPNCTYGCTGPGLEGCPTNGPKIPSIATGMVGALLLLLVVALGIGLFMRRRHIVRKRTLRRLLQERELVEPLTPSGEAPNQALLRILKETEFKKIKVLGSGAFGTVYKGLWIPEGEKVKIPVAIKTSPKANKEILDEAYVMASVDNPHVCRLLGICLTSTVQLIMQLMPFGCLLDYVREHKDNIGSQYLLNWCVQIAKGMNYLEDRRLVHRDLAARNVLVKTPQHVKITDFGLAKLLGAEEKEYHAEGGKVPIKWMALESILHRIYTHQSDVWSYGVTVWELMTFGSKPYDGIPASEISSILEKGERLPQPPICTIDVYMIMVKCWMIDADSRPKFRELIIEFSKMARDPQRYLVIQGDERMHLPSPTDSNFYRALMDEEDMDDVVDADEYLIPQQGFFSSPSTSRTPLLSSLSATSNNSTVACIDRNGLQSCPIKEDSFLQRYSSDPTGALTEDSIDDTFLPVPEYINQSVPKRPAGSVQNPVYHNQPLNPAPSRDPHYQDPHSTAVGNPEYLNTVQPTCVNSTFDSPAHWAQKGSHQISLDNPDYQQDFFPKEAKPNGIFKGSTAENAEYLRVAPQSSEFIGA
# Protocol: (§2) We also assessed the antiproliferative activity of compounds of Formula (I) against BaF3 cells expressing the target EGFR mutations or control (i.e., cell lines expressing wildtype EGFR). Assays were conducted using MTT.
# [5] = target: T2, BaF3 cells expressing the target EGFR mutations (Homo sapiens, UniProt P00533, T790M/L858R, cells depend on it); experiment: as above; assay type: cell-based; conditions: BAF3 EGFR L858R-T790M PURO POOL cells, read-out: IC50, BAF3 EGFR L858R-T790M PURO POOL
# T2 construct: IC50, BAF3 EGFR L858R-T790M PURO POOL; other: BAF3 EGFR L858R-T790M PURO POOL cells, MTT; IC50, BAF3 EGFR L858R-T790M PURO POOL; other: BAF3 EGFR L858R-T790M PURO POOL cells; MTT
# T2 sequence (P00533 whole entry T790M/L858R): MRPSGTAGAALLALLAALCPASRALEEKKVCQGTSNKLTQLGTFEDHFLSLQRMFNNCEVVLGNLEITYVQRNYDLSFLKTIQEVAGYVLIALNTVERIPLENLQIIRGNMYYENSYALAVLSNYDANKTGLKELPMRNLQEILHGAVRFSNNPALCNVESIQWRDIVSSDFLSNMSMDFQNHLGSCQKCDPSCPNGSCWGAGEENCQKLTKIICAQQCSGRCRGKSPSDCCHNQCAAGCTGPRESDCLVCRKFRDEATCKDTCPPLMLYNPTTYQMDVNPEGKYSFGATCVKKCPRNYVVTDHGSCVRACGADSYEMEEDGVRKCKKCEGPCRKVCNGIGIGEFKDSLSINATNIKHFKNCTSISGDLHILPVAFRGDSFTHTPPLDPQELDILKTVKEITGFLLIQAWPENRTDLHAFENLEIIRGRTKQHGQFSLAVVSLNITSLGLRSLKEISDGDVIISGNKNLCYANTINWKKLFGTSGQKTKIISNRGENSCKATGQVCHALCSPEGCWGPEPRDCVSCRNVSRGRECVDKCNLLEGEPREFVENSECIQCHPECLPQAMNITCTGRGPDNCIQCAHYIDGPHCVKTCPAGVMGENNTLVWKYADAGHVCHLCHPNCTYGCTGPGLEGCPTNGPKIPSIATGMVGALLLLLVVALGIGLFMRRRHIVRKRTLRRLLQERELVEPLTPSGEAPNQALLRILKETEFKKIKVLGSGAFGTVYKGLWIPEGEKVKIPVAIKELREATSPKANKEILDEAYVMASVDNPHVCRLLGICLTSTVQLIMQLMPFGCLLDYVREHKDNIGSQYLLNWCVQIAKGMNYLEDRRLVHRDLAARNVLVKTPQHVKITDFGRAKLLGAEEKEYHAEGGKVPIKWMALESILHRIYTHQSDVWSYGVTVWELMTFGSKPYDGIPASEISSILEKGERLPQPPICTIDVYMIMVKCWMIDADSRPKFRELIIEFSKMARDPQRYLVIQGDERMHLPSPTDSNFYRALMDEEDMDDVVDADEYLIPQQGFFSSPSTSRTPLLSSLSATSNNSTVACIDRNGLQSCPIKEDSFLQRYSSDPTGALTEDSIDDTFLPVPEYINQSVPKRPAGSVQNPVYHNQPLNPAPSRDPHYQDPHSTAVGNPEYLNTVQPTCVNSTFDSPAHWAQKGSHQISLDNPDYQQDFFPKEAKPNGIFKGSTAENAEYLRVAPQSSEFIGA
# Protocol: as §2
# [6] = tested on: BaF3 cells expressing wildtype EGFR; experiment: Antiproliferative activity (MTT) against control BaF3 cells expressing wildtype EGFR; assay type: cell-based; conditions: Mus musculus
# Protocol: as §2
# [7] = EGFR L858R/T790M double mutation
# [8] = 10 pt curves, 3 μM top concentration
Compound,IC50 ([1]; human EGFR native sequence),IC50 ([2]; EGFR L858R),"IC50 [3, 7]",GI50 [4],GI50 [5],"IC50 [1, 8]","IC50 [2, 8]","IC50 [3, 8]",IC50 ([6]; BAF3 PARENTAL cells (control)),IC50 ([6]; BAF3 parental cells)
"CC#CC(=O)Nc1cc(Nc2ncc(Cl)c(Nc3ccccc3P(C)(C)=O)n2)c(OC)cc1OCC1CCOCC1 [Example 102, N-(5-((5-chloro-4-((2-(dimethylphosphoryl)phenyl)amino)pyrimidin-2-yl)amino)-4-methoxy-2-((tetrahydro-2H-pyran-4-yl)methoxy)phenyl)but-2-ynamide]",≥ 250 nM,101 to 250 nM,≥ 250 nM,< 50 nM,50 to 100 nM,,,,≥ 250 nM,
"COc1ccc(NC(=O)/C=C/C(=O)N2CCN(C)CC2)cc1Nc1ncc(Cl)c(Nc2ccccc2P(C)(C)=O)n1 [Example 59, (E)—N-(3-((5-chloro-4-((2-(dimethylphosphoryl)phenyl)amino)pyrimidin-2-yl)amino)-4-methoxyphenyl)-4-(4-methylpiperazin-1-yl)-4-oxobut-2-enamide]",< 50 nM,< 50 nM,< 50 nM,101 to 250 nM,≥ 250 nM,,,,≥ 250 nM,
"COc1ccc(NC(=O)/C=C/C(=O)N(C)C)cc1Nc1ncc(Cl)c(Nc2ccccc2P(C)(C)=O)n1 [Example 60, N1-(3-((5-chloro-4-((2-(dimethylphosphoryl)phenyl)amino)pyrimidin-2-yl)amino)-4-methoxyphenyl)-N4,N4-dimethylfumaramide]",≥ 250 nM,50 to 100 nM,101 to 250 nM,≥ 250 nM,≥ 250 nM,,,,≥ 250 nM,
"C=CC(=O)Nc1cc(Nc2ncc(Cl)c(Nc3ccccc3P(C)(C)=O)n2)c(OC)cc1N1CCCN(C)CC1 [Example 25, N-(5-((5-chloro-4-((2-(dimethylphosphoryl)phenyl)amino)pyrimidin-2-yl)amino)-4-methoxy-2-(4-methyl-1,4-diazepan-1-yl)phenyl)acrylamide]",< 50 nM,< 50 nM,< 50 nM,< 50 nM,< 50 nM,,,,≥ 250 nM,
"COc1ccc(NC(=O)CF)cc1Nc1ncc(Cl)c(Nc2ccccc2P(C)(C)=O)n1 [Example 147, N-(3-((5-chloro-4-((2-(dimethylphosphoryl)phenyl)amino)pyrimidin-2-yl)amino)-4-methoxyphenyl)-2-fluoroacetamide]",,,,≥ 250 nM,≥ 250 nM,≥ 250 nM,50 to 100 nM,101 to 250 nM,,≥ 250 nM
"C=CC(=O)Nc1cc(Nc2ncc(Cl)c(Nc3ccccc3P(C)(C)=O)n2)c(OC)cc1OCCN1CCOCC1 [Example 4, N-(5-((5-chloro-4-((2-(dimethylphosphoryl)phenyl)amino)pyrimidin-2-yl)amino)-4-methoxy-2-(2-morpholinoethoxy)phenyl)acrylamide]",< 50 nM,< 50 nM,< 50 nM,50 to 100 nM,101 to 250 nM,,,,≥ 250 nM,
"C=CC(=O)Nc1cc(Nc2ncc(Cl)c(Nc3ccccc3P(C)(C)=O)n2)c(OC)cc1OC1CCCN(CCOC)C1 (stereo not drawn) [Example 123, N-(5-((5-chloro-4-((2-(dimethylphosphoryl)phenyl)amino)pyrimidin-2-yl)amino)-4-methoxy-2-((1-(2-methoxyethyl)piperidin-3-yl)oxy)phenyl)acrylamide]",,,,< 50 nM,< 50 nM,< 50 nM,< 50 nM,< 50 nM,,≥ 250 nM
"CC#CC(=O)Nc1cc(Nc2ncc(Cl)c(Nc3ccccc3P(C)(C)=O)n2)c(OC)cc1OC1COC1 [Example 103, N-(5-((5-chloro-4-((2-(dimethylphosphoryl)phenyl)amino)pyrimidin-2-yl)amino)-4-methoxy-2-(oxetan-3-yloxy)phenyl)but-2-ynamide]",,,,< 50 nM,50 to 100 nM,≥ 250 nM,< 50 nM,50 to 100 nM,,≥ 250 nM
"C=C(CN1CCCC1)C(=O)Nc1ccc(OC)c(Nc2ncc(Cl)c(Nc3ccccc3P(C)(C)=O)n2)c1 [Example 42, N-(3-((5-chloro-4-((2-(dimethylphosphoryl)phenyl)amino)pyrimidin-2-yl)amino)-4-methoxyphenyl)-2-(pyrrolidin-1-ylmethyl)acrylamide]",< 50 nM,< 50 nM,< 50 nM,< 50 nM,< 50 nM,,,,≥ 250 nM,
"C=CC(=O)Nc1cc(Nc2ncc(Cl)c(Nc3ccccc3P(C)(C)=O)n2)c(OC)cc1N1CCC(N2CCC(O)CC2)C1 (stereo not drawn) [Example 39, N-(5-((5-chloro-4-((2-(dimethylphosphoryl)phenyl)amino)pyrimidin-2-yl)amino)-2-(3-(4-hydroxypiperidin-1-yl)pyrrolidin-1-yl)-4-methoxyphenyl)acrylamide]",< 50 nM,< 50 nM,< 50 nM,101 to 250 nM,≥ 250 nM,,,,≥ 250 nM,

# Further lines, with some results ahead:
IC50 ([1]; human EGFR native sequence),IC50 ([2]; EGFR L858R),"IC50 [3, 7]",GI50 [4],GI50 [5],"IC50 [1, 8]","IC50 [2, 8]","IC50 [3, 8]",Compound,IC50 ([6]; BAF3 PARENTAL cells (control)),IC50 ([6]; BAF3 parental cells)
≥ 250 nM,< 50 nM,< 50 nM,101 to 250 nM,101 to 250 nM,,,,"C=CC(=O)Nc1cc(Nc2ncc(Cl)c(Nc3ccccc3P(C)(C)=O)n2)c(OC)cc1C#CC1(N(C)C)CC1 [Example 73, N-(5-((5-chloro-4-((2-(dimethylphosphoryl)phenyl)amino)pyrimidin-2-yl)amino)-2-((1-(dimethylamino)cyclopropyl)ethynyl)-4-methoxyphenyl)acrylamide]",≥ 250 nM,
< 50 nM,< 50 nM,< 50 nM,< 50 nM,< 50 nM,,,,"C=CC(=O)Nc1cc(Nc2ncc(Cl)c(Nc3ccccc3P(C)(C)=O)n2)c(OC)cc1N1CC[C@H](N(C)C)C1 (stereo in doubt) [Example 29, rac-(R)-N-(5-((5-chloro-4-((2-(dimethylphosphoryl)phenyl)amino)pyrimidin-2-yl)amino)-2-(3-(dimethylamino)pyrrolidin-1-yl)-4-methoxyphenyl)acrylamide]",≥ 250 nM,
,,,< 50 nM,< 50 nM,< 50 nM,< 50 nM,< 50 nM,"COc1ccc(NC(=O)CCl)cc1Nc1ncc(C)c(Nc2ccccc2P(C)(C)=O)n1 [Example 141, 2-chloro-N-(3-((4-((2-(dimethylphosphoryl)phenyl)amino)-5-methylpyrimidin-2-yl)amino)-4-methoxyphenyl)acetamide]",,≥ 250 nM
≥ 250 nM,101 to 250 nM,≥ 250 nM,≥ 250 nM,≥ 250 nM,,,,"COc1ccc(NC(=O)/C=C\C(=O)N2CCN(C)CC2)cc1Nc1ncc(Cl)c(Nc2ccccc2P(C)(C)=O)n1 [Example 63, (Z)-N-(3-((5-chloro-4-((2-(dimethylphosphoryl)phenyl)amino)pyrimidin-2-yl)amino)-4-methoxyphenyl)-4-(4-methylpiperazin-1-yl)-4-oxobut-2-enamide]",≥ 250 nM,
< 50 nM,< 50 nM,< 50 nM,< 50 nM,< 50 nM,,,,"COc1cc(F)c(NC(=O)C#CCN(C)C)cc1Nc1ncc(Cl)c(Nc2ccccc2P(C)(C)=O)n1 [Example 87, N-(5-((5-chloro-4-((2-(dimethylphosphoryl)phenyl)amino)pyrimidin-2-yl)amino)-2-fluoro-4-methoxyphenyl)-4-(dimethylamino)but-2-ynamide]",101 to 250 nM,
,,,< 50 nM,< 50 nM,< 50 nM,< 50 nM,< 50 nM,"C=CC(=O)Nc1cc(Nc2ncc(Cl)c(Nc3ccccc3P(C)(C)=O)n2)c(OC)cc1C#CCN(C)CCOC [Example 161, N-(5-((5-chloro-4-((2-(dimethylphosphoryl)phenyl)amino)pyrimidin-2-yl)amino)-4-methoxy-2-(3-((2-methoxyethyl)(methyl)amino)prop-1-yn-1-yl)phenyl)acrylamide]",,≥ 250 nM
,,,< 50 nM,< 50 nM,< 50 nM,< 50 nM,< 50 nM,"C=CC(=O)Nc1cc(Nc2ncc(Cl)c(Nc3ccccc3P(C)(C)=O)n2)c(OC)cc1C [Example 133, N-(5-((5-chloro-4-((2-(dimethylphosphoryl)phenyl)amino)pyrimidin-2-yl)amino)-4-methoxy-2-methylphenyl)acrylamide]",,≥ 250 nM
